In the supplement of paper PMC10307832:

Experiments:
Assay in all cases: relative viability (nuclei count vs DMSO), 5 days (fraction); higher = more cells survive
NCI-H650 = tested on: NCI-H650
Method in brief: (§1)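 Relative viability divides the nuclei count in treated wells by that in vehicle wells. Lung cancer cell lines were seeded in 1536-well plates, dosed by pin tool the next day, and fixed and stained after 5 days in one step with final 0.05% Triton X-100, 1% formaldehyde and 1 ug/ml Hoechst. Dosing was a single drug or a fixed anchor-drug dose plus five library-drug doses (not always all listed) in √10 steps, and values are medians of duplicate plates imaged at 4×.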

NCI-H522 = tested on: NCI-H522
Method in brief: as §1

NCI-H727 = tested on: NCI-H727
Method in brief: as §1

NCI-H596 = tested on: NCI-H596
Method in brief: as §1

NCI-H1395 = tested on: NCI-H1395
Method in brief: as §1

EMC-BAC-2 = tested on: EMC-BAC-2
Method in brief: as §1

NCI-H23 = tested on: NCI-H23
Method in brief: as §1

NCI-H2347 = tested on: NCI-H2347
Method in brief: as §1

NCI-H2087 = tested on: NCI-H2087
Method in brief: as §1

BEN = tested on: BEN
Method in brief: as §1

NCI-H1993 = tested on: NCI-H1993
Method in brief: as §1

NCI-H647 = tested on: NCI-H647
Method in brief: as §1

HARA = tested on: HARA
Method in brief: as §1

NCI-H838 = tested on: NCI-H838
Method in brief: as §1

201T = tested on: 201T
Method in brief: as §1

NCI-H441 = tested on: NCI-H441
Method in brief: as §1

NCI-H1666 = tested on: NCI-H1666
Method in brief: as §1

NCI-H2126 = tested on: NCI-H2126
Method in brief: as §1

LOU-NH91 = tested on: LOU-NH91
Method in brief: as §1

HCC-44 = tested on: HCC-44
Method in brief: as §1

NCI-H3122 = tested on: NCI-H3122
Method in brief: as §1

LCLC-103H = tested on: LCLC-103H
Method in brief: as §1

COc1cc(N2CCC(C(N)=O)CC2)ccc1Nc1nc(N)c(Cl)c(Nc2ccccc2S(=O)(=O)C(C)C)n1 [HG-5-88-01] + NC(=O)Nc1cc(-c2cccc(F)c2)sc1C(=O)N[C@H]1CCCNC1 [AZD7762] (partner 0.2 µM)
relative viability (NCI-H650; first compound 0.04 µM): 1.04 | relative viability (NCI-H650; first compound 0.1265 µM): 1.07 | relative viability (NCI-H650; first compound 0.4 µM): 0.901 | relative viability (NCI-H650; first compound 1.265 µM): 1.01 | relative viability (NCI-H650; first compound 4 µM): 0.683 | relative viability (NCI-H522; first compound 0.04 µM): 0.795 | relative viability (NCI-H522; first compound 0.1265 µM): 0.842 | relative viability (NCI-H522; first compound 0.4 µM): 0.779 | relative viability (NCI-H522; first compound 1.265 µM): 0.846 | relative viability (NCI-H522; first compound 4 µM): 0.681 | relative viability (NCI-H727; first compound 0.04 µM): 0.729 | relative viability (NCI-H727; first compound 0.1265 µM): 0.633 | relative viability (NCI-H727; first compound 0.4 µM): 0.597 | relative viability (NCI-H727; first compound 4 µM): 0.377 | relative viability (NCI-H596; first compound 0.04 µM): 1.05 | relative viability (NCI-H596; first compound 0.1265 µM): 1.07 | relative viability (NCI-H596; first compound 0.4 µM): 1.04 | relative viability (NCI-H596; first compound 1.265 µM): 1.06 | relative viability (NCI-H596; first compound 4 µM): 0.697 | relative viability (NCI-H1395; first compound 0.04 µM): 0.366 | relative viability (NCI-H1395; first compound 0.1265 µM): 0.403 | relative viability (NCI-H1395; first compound 0.4 µM): 0.418 | relative viability (NCI-H1395; first compound 1.265 µM): 0.384 | relative viability (NCI-H1395; first compound 4 µM): 0.362 | relative viability (EMC-BAC-2; first compound 0.04 µM): 1.09 | relative viability (EMC-BAC-2; first compound 0.1265 µM): 1.21 | relative viability (EMC-BAC-2; first compound 0.4 µM): 0.922 | relative viability (EMC-BAC-2; first compound 1.265 µM): 0.975 | relative viability (EMC-BAC-2; first compound 4 µM): 0.65 | relative viability (NCI-H23; first compound 0.04 µM): 0.483 | relative viability (NCI-H23; first compound 0.1265 µM): 0.27 | relative viability (NCI-H23; first compound 0.4 µM): 0.213 | relative viability (NCI-H23; first compound 1.265 µM): 0.235 | relative viability (NCI-H23; first compound 4 µM): 0.174 | relative viability (NCI-H2347; first compound 0.04 µM): 0.881 | relative viability (NCI-H2347; first compound 0.1265 µM): 0.9 | relative viability (NCI-H2347; first compound 0.4 µM): 0.82 | relative viability (NCI-H2347; first compound 1.265 µM): 0.718 | relative viability (NCI-H2347; first compound 4 µM): 0.804 | relative viability (NCI-H2087; first compound 0.04 µM): 1.23 | relative viability (NCI-H2087; first compound 0.1265 µM): 1.26 | relative viability (NCI-H2087; first compound 0.4 µM): 1.45 | relative viability (NCI-H2087; first compound 1.265 µM): 1.14 | relative viability (NCI-H2087; first compound 4 µM): 1.17 | relative viability (BEN; first compound 0.04 µM): 0.47 | relative viability (BEN; first compound 0.1265 µM): 0.69 | relative viability (BEN; first compound 0.4 µM): 0.635 | relative viability (BEN; first compound 1.265 µM): 0.615 | relative viability (BEN; first compound 4 µM): 0.576 | relative viability (NCI-H1993; first compound 0.04 µM): 0.845 | relative viability (NCI-H1993; first compound 0.1265 µM): 0.875 | relative viability (NCI-H1993; first compound 0.4 µM): 0.77 | relative viability (NCI-H1993; first compound 4 µM): 0.558 | relative viability (NCI-H647; first compound 0.04 µM): 0.455 | relative viability (NCI-H647; first compound 0.1265 µM): 0.405 | relative viability (NCI-H647; first compound 0.4 µM): 0.472 | relative viability (NCI-H647; first compound 1.265 µM): 0.394 | relative viability (NCI-H647; first compound 4 µM): 0.433 | relative viability (HARA; first compound 0.04 µM): 0.493 | relative viability (HARA; first compound 0.1265 µM): 0.313 | relative viability (HARA; first compound 0.4 µM): 0.332 | relative viability (HARA; first compound 1.265 µM): 0.352 | relative viability (HARA; first compound 4 µM): 0.322 | relative viability (NCI-H838; first compound 0.04 µM): 0.917 | relative viability (NCI-H838; first compound 0.1265 µM): 0.958 | relative viability (NCI-H838; first compound 0.4 µM): 0.881 | relative viability (NCI-H838; first compound 1.265 µM): 0.749 | relative viability (NCI-H838; first compound 4 µM): 0.847 | relative viability (201T; first compound 0.04 µM): 0.54 | relative viability (201T; first compound 0.1265 µM): 0.62 | relative viability (201T; first compound 1.265 µM): 0.631 | relative viability (201T; first compound 4 µM): 0.374 | relative viability (NCI-H441; first compound 0.04 µM): 0.964 | relative viability (NCI-H441; first compound 0.1265 µM): 0.931 | relative viability (NCI-H441; first compound 0.4 µM): 1.19 | relative viability (NCI-H441; first compound 1.265 µM): 1.08 | relative viability (NCI-H441; first compound 4 µM): 0.998 | relative viability (NCI-H1666; first compound 0.04 µM): 0.75 | relative viability (NCI-H1666; first compound 0.1265 µM): 0.783 | relative viability (NCI-H1666; first compound 0.4 µM): 0.779 | relative viability (NCI-H1666; first compound 1.265 µM): 0.771 | relative viability (NCI-H1666; first compound 4 µM): 0.53 | relative viability (NCI-H2126; first compound 0.04 µM): 0.985 | relative viability (NCI-H2126; first compound 0.1265 µM): 1.05 | relative viability (NCI-H2126; first compound 0.4 µM): 0.961 | relative viability (NCI-H2126; first compound 1.265 µM): 1.05 | relative viability (NCI-H2126; first compound 4 µM): 0.828 | relative viability (LOU-NH91; first compound 0.04 µM): 0.809 | relative viability (LOU-NH91; first compound 0.1265 µM): 0.677 | relative viability (LOU-NH91; first compound 0.4 µM): 0.649 | relative viability (LOU-NH91; first compound 1.265 µM): 0.551 | relative viability (LOU-NH91; first compound 4 µM): 0.514 | relative viability (HCC-44; first compound 0.04 µM): 0.959 | relative viability (HCC-44; first compound 0.1265 µM): 0.999 | relative viability (HCC-44; first compound 0.4 µM): 0.995 | relative viability (HCC-44; first compound 1.265 µM): 1.03 | relative viability (HCC-44; first compound 4 µM): 0.957 | relative viability (NCI-H3122; first compound 0.04 µM): 0.744 | relative viability (NCI-H3122; first compound 0.1265 µM): 0.376 | relative viability (NCI-H3122; first compound 0.4 µM): 0.315 | relative viability (NCI-H3122; first compound 1.265 µM): 0.24 | relative viability (NCI-H3122; first compound 4 µM): 0.114 | relative viability (LCLC-103H; first compound 0.04 µM): 0.803 | relative viability (LCLC-103H; first compound 0.1265 µM): 0.761 | relative viability (LCLC-103H; first compound 0.4 µM): 0.616 | relative viability (LCLC-103H; first compound 1.265 µM): 0.828 | relative viability (LCLC-103H; first compound 4 µM): 0.697
